How the values were obtained:
human TLR7 = molecular target: T1, human TLR7 (Homo sapiens, UniProt Q9NYK1); test: HEK-Blue hTLR7 SEAP reporter gene inhibition assay; assay type: cell-based; settings: hTLR7 HEK-Blue cells, TLR7 ligand Gardiquimod 10 µM, 20 hours, SEAP by Quanti-blue; class symbols; read-out: HEK-Blue hTLR7 IC50
T1 sequence (Q9NYK1 27-1049): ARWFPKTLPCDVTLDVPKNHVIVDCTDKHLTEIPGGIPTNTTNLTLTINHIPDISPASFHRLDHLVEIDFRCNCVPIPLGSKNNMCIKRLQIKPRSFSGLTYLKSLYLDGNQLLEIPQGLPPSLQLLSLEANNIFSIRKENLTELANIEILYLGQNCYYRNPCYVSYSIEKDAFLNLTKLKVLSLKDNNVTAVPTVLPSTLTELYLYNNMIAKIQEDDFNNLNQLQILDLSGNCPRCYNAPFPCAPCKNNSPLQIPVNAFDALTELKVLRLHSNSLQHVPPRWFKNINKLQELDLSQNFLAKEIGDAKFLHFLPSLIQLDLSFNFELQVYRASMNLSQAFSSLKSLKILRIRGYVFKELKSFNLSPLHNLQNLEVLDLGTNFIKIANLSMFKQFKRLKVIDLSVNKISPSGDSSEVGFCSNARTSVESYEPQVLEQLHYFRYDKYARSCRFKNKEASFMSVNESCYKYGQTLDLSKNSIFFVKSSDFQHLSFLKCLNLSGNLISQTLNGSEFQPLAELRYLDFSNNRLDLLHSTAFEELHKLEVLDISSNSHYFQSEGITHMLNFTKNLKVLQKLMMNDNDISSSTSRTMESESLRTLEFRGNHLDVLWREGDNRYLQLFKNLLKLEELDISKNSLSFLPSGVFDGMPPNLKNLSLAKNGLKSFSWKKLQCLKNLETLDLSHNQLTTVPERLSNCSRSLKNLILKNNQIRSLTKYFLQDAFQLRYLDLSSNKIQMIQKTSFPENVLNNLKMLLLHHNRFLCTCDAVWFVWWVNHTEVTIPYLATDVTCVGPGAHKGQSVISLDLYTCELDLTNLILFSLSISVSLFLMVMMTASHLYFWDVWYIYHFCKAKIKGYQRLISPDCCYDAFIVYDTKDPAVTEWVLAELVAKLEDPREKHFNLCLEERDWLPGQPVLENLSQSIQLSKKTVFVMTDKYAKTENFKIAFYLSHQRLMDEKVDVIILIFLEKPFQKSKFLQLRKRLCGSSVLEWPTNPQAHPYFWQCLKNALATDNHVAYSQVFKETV
Summary of the method: (§1)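 Compounds (final 0.001–36 µM) were added 15 min before stimulation with 10 µM TLR7 agonist Gardiquimod or 10 µM TLR8 ligand for 20 h. Read-out: SEAP from NF-κB/AP-1 reporter in hTLR7 (80,000 cells/well) or hTLR8 (60,000 cells/well) HEK-Blue cells, via Quanti-Blue; IC50 derived.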

human TLR8 = molecular target: T2, human TLR8 (Homo sapiens, UniProt Q9NR97); test: HEK-Blue hTLR8 SEAP reporter gene inhibition assay; assay type: cell-based; settings: hTLR8 HEK-Blue cells, TLR8 ligand 10 µM, 20 hours, SEAP by Quanti-blue; class symbols; read-out: HEK-Blue hTLR8 IC50
T2 construct: expressed in transfected cells
T2 sequence (Q9NR97 27-1041): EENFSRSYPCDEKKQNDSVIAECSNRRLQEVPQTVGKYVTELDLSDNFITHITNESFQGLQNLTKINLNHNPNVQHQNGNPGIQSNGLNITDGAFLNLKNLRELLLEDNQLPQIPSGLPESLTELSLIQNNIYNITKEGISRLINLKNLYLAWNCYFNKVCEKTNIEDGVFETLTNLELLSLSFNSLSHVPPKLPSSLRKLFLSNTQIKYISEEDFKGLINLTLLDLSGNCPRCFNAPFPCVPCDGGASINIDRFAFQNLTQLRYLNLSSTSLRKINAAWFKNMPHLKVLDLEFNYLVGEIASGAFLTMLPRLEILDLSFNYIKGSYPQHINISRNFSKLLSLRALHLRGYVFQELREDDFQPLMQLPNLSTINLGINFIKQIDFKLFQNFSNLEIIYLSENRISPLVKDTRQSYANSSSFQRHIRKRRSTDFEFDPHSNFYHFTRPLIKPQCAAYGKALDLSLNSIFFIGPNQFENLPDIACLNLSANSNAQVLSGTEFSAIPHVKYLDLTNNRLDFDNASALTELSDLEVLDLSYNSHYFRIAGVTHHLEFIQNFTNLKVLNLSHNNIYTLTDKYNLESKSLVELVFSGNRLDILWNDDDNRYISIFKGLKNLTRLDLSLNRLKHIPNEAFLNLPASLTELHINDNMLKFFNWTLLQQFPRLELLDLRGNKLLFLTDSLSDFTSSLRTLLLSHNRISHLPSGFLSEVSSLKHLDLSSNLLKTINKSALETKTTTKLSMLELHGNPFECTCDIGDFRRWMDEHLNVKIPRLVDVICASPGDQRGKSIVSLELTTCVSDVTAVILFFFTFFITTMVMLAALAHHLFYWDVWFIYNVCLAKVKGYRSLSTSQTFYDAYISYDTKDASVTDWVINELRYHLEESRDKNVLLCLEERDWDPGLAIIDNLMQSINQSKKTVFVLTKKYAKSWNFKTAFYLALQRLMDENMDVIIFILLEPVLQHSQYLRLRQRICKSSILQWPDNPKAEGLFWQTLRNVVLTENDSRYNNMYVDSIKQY
Summary of the method: as §1

Structure (SMILES)	IC50 (human TLR7) [µM]	IC50 (human TLR8) [µM]
C[C@@H]1CN(c2ccc(C#N)n3ncc(F)c23)Cc2c3c(nn21)CN([C@@H]1CCNC1=O)[C@@H](C)C3 [Example I-155, 4-((4R,9S)-4,9-dimethyl-8-((R)-2-oxopyrrolidin-3-yl)-3,4,7,8,9,10-hexahydropyrido[3',4':3,4]pyrazolo[1,5-a]pyrazin-2(1H)-yl)-3-fluoropyrazolo[1,5-a]pyridine-7-carbonitrile]	< 0.05	> 0.1
C[C@@H]1CN(c2ccc(C#N)n3ncc(F)c23)Cc2c3c(nn21)CN([C@H]1CCNC1=O)[C@@H](C)C3 [Example I-157, 4-((4R,9S)-4,9-dimethyl-8-((S)-2-oxopyrrolidin-3-yl)-3,4,7,8,9,10-hexahydropyrido[3',4':3,4]pyrazolo[1,5-a]pyrazin-2(1H)-yl)-3-fluoropyrazolo[1,5-a]pyridine-7-carbonitrile]	> 0.05	> 0.1
C[C@@H]1CN(c2ccc(C#N)n3ncc(F)c23)Cc2c3c(nn21)CN(C[C@@H](O)CO)[C@@H](C)C3 [Example I-158, 4-((4R,9S)-8-((R)-2,3-dihydroxypropyl)-4,9-dimethyl-3,4,7,8,9,10-hexahydropyrido[3',4':3,4]pyrazolo[1,5-a]pyrazin-2(1H)-yl)-3-fluoropyrazolo[1,5-a]pyridine-7-carbonitrile]	< 0.05	< 0.1
C[C@@H]1CN(c2ccc(C#N)n3ncc(F)c23)Cc2c3c(nn21)CN(C1CCC1O)[C@@H](C)C3 (stereo partly drawn) [Example I-174, 3-Fluoro-4-((4R,9S)-8-(2-hydroxycyclobutyl)-4,9-dimethyl-3,4,7,8,9,10-hexahydropyrido[3',4':3,4]pyrazolo[1,5-a]pyrazin-2(1H)-yl)pyrazolo[1,5-a]pyridine-7-carbonitrile]	< 0.05	> 0.1
C[C@@H]1CN(c2ccc(C#N)n3ncc(F)c23)Cc2c3c(nn21)CN(CC1(N)COC1)[C@@H](C)C3 [Example I-184, 4-((4R,9S)-8-((3-aminooxetan-3-yl)methyl)-4,9-dimethyl-3,4,7,8,9,10-hexahydropyrido[3',4':3,4]pyrazolo[1,5-a]pyrazin-2(1H)-yl)-3-fluoropyrazolo[1,5-a]pyridine-7-carbonitrile]	> 0.05	> 0.1
C[C@@H]1CN(c2ccc(C#N)n3ncc(F)c23)Cc2c3c(nn21)C[C@](C)(N1CCC(O)C1)CC3 (stereo partly drawn) [Example I-187, 3-Fluoro-4-((4R,8R)-8-(3-hydroxypyrrolidin-1-yl)-4,8-dimethyl-3,4,7,8,9,10-hexahydropyrazino[1,2-b]indazol-2(1H)-yl)pyrazolo[1,5-a]pyridine-7-carbonitrile]	< 0.05	< 0.1
C[C@@H]1CN(c2ccc(C#N)n3ncc(F)c23)Cc2c3c(nn21)C[C@@](C)(N1CCC(O)C1)CC3 (stereo partly drawn) [Example I-188, 3-Fluoro-4-((4R,8S)-8-(3-hydroxypyrrolidin-1-yl)-4,8-dimethyl-3,4,7,8,9,10-hexahydropyrazino[1,2-b]indazol-2(1H)-yl)pyrazolo[1,5-a]pyridine-7-carbonitrile]	> 0.05	< 0.1
COC(=O)C1(CN2Cc3nn4c(c3C[C@@H]2C)CN(c2ccc(C#N)n3ncc(F)c23)C[C@H]4C)CC1 [Example I-192, Methyl 1-(((4R,9S)-2-(7-cyano-3-fluoropyrazolo [1,5-a]pyridin-4-yl)-4,9-dimethyl-1,2,3,4,9,10-hexahydropyrido[3',4':3,4]pyrazolo[1,5-a]pyrazin-8(7H)-yl)methyl) cyclopropane-1-carboxylate]	> 0.05	< 0.1
C[C@@H]1CN(c2ccc(C#N)n3ncc(F)c23)Cc2c3c(nn21)CN(CC(C)(C)C(N)=O)[C@@H](C)C3 [Example I-198, 3-((4R,9S)-2-(7-cyano-3-fluoropyrazolo[1,5-a]pyridin-4-yl)-4,9-dimethyl-1,2,3,4,9,10-hexahydropyrido[3',4':3,4]pyrazolo[1,5-a]pyrazin-8(7H)-yl)-2,2-dimethyl propanamide]	> 0.05	> 0.1

More lines, now with the values ahead:

IC50 (human TLR7) [µM]	IC50 (human TLR8) [µM]	Structure (SMILES)
> 0.05	> 0.1	CC(C(N)=O)N1Cc2nn3c(c2C[C@@H]1C)CN(c1ccc(C#N)n2ncc(F)c12)C[C@H]3C (stereo partly drawn) [Example I-156, 2-((4R,9S)-2-(7-cyano-3-fluoropyrazolo[1,5-a]pyridin-4-yl)-4,9-dimethyl-1,2,3,4,9,10-hexahydropyrido[3',4':3,4]pyrazolo[1,5-a]pyrazin-8(7H)-yl)propanamide]
> 0.05	> 0.1	C[C@@H]1CN(c2ccc(C#N)n3ncc(F)c23)Cc2c3c(nn21)CN(C(CO)CO)[C@@H](C)C3 [Example I-159, 4-((4R,9S)-8-(1,3-dihydroxypropan-2-yl)-4,9-dimethyl-3,4,7,8,9,10-hexahydropyrido [3',4':3,4]pyrazolo[1,5-a]pyrazin-2(1H)-yl)-3-fluoropyrazolo[1,5-a]pyridine-7-carbonitrile]
> 0.05	> 0.1	C[C@@H]1CN(c2ccc(C#N)n3ncc(F)c23)Cc2c3c(nn21)CN(C[C@H](O)CO)[C@@H](C)C3 [Example I-160, 4-((4R,9S)-8-((S)-2,3-dihydroxypropyl)-4,9-dimethyl-3,4,7,8,9,10-hexahydropyrido[3',4':3,4]pyrazolo[1,5-a]pyrazin-2(1H)-yl)-3-fluoropyrazolo[1,5-a]pyridine-7-carbonitrile]
< 0.05	> 0.1	C[C@@H]1Cc2c(nn3c2CN(c2ccc(C#N)n4ncc(F)c24)C[C@H]3C)[C@H](C)N1CC(N)=O [Example I-165, 2-((4R,7S,9R)-2-(7-cyano-3-fluoropyrazolo[1,5-a]pyridin-4-yl)-4,7,9-trimethyl-1,2,3,4,9,10-hexahydropyrido[3',4':3,4]pyrazolo[1,5-a]pyrazin-8(7H)-yl)acetamide]
> 0.05	< 0.1	C[C@@H]1CN(c2ccc(C#N)n3ncc(F)c23)Cc2c3c(nn21)CN(CC12CC(C(N)=O)(C1)C2)[C@@H](C)C3 [Example I-193, 3-(((4R,9S)-2-(7-cyano-3-fluoropyrazolo [1,5-a]pyridin-4-yl)-4,9-dimethyl-1,2,3,4,9,10-hexahydropyrido[3',4':3,4]pyrazolo[1,5-a]pyrazin-8(7H)-yl)methyl)bicyclo[1.1.1] pentane-1-carboxamide]
< 0.05	> 0.1	C[C@@H]1CN(c2ccc(C#N)n3ncc(F)c23)Cc2c3c(nn21)CN(CC1(C(N)=O)CC1)[C@@H](C)C3 [Example I-204, 1-(((4R,9S)-2-(7-cyano-3-fluoropyrazolo [1,5-a]pyridin-4-yl)-4,9-dimethyl-1,2,3,4,9,10-hexahydropyrido[3',4':3,4]pyrazolo[1,5-a]pyrazin-8(7H)-yl)methyl)cyclopropane-1-carboxamide]

Source: EP4644396A1 (Visionpharma (Nantong) Co., Ltd, priority 2022, dated 2024)
